Results published in patent publication US20190314345A1, “CALCINEURIN INHIBITOR AND NON-STEROIDAL ANTI-INFLAMMATORY DRUG TO REDUCE RISK OF POST-IMAGING PANCREATITIS” (UNIVERSITY OF PITTSBURGH - OF THE COMMONWEALTH SYSTEM OF …, priority 2016, published 2019).
Blank lines part the entries; values can stand above or below the molecule they belong to.

How the values were obtained:
AR42J cells = assay: Ca2+ signals (Fluo-4AM) in AR42J cells; type: cell-based; conditions: U73122 5 μM, 2-APB 100 μM
Procedure: FIG. 7A-7H. […] (A) Summation of whole cell tracings from AR42J cells loaded with Fluo-4AM and perifused with RC (iohexol; 10-25%). (B, D) Quantification of amplitude and area under the curve. (C) RC (25%)-induced acinar cell Ca^2+ signals were prevented by the PLC inhibitor U73122 (5 μM) and the IP3R inhibitor 2-APB (100 μM). (n=20-30 cells per condition). *, # P<0.05 relative to 10% RC or RC alone, respectively. AR42J cells were infected with Ad-NFAT-luciferase and stimulated with RC at (E) increasing concentrations. […] (n=3). *, #, P<0.05, relative to the control or RC alone, respectively.
Acinar cells were loaded at room temperature with the high-affinity Ca^2+-sensing dye Fluo-4AM (Kd=300 nM; Invitrogen). Acinar cells were plated on acid-washed glass coverslips and then mounted on a perifusion chamber. Thereupon, they were stimulated at room temperature with varying concentrations of RC (17-50%) diluted in HEPES buffer. Carbachol (1 mM) was given at the end of each experiment to confirm that the cells were intact and could mobilize intracellular Ca^2+ stores. A Zeiss LSM710 laser scanning confocal microscope was used with a […], 1.4 numerical aperture objective. […] Fluorescence from individual acinar cells was recorded. Analysis of recordings was performed using ImageJ software (NIH, Bethesda, Md.), and mean fluorescence over time in each region was graphed.

calcineurin [1] = assay: NFAT-luciferase activity assay in mouse primary acinar cells; type: cell-based
Procedure: (§1) Acinar cells were infected with Ad-NFAT-luciferase following a previously described procedure^10, 15, 16. The construct includes a luciferase gene placed downstream of an IL-4 promoter which contains nine tandem NFAT binding sites^10. Acinar cells were incubated with the NFAT-driven luciferase adenovirus for 1.5 hr prior to stimulation. All of the stated inhibitors were added for 30 min prior to stimulation with RC. NFAT-luciferase was measured using the luciferase assay system. Briefly, cells were spun at 1,000 rpm for 5 min, washed with PBS, and lysed using reporter lysis 5× buffer (Promega #E397A, Madison, Wis.). Samples were vortexed and spun at 12,000 g for 2 min. Supernatant was plated, and luminescence was measured using a Synergy H1 plate reader (BioTek, Winooski, Vt.) and normalized to total protein.

NF-κB = assay: NF-κB-luciferase activity assay in AR42J cells; type: cell-based; conditions: for effect on RC-induced NF-κB luciferase levels: U73122 5 μM, 2-APB 100 μM, BAPTA 64 μM
Procedure: AR42J cells were differentiated towards an acinar phenotype by administering dexamethasone (100 nM) for 48-72 hr^17. AR42J cells were infected with Ad-NF-κB luciferase 16 h prior to stimulation using a previously described method^12. Following a wash with DMEM/F12 medium, acinar cells were evenly distributed in a 48-well plate and incubated for 30 min at 37° C. They were incubated with RC at varying concentrations and times. NF-κB-luciferase was measured using a commercially available luciferase assay (Promega, Madison, Wis.). Briefly, cells were spun at 1,000 rpm for 5 min, washed with PBS, and lysed using reporter lysis 5× buffer (Promega, catalog no. E397A). Samples were vortexed and spun at 12,000×g for 2 min. The supernatant was plated, and luminescence was measured using a Synergy H1 plate reader (BioTek, Winooski, Vt.) and normalized to […].

primary acinar cells = assay: Cell necrosis assay (propidium iodide uptake) in primary acinar cells; type: cell-based, mouse; conditions: for effect on RC (12%)-induced acinar cell injury (PI uptake): 6 hr incubation, U73122 5 μM, 2-APB 100 μM, BAPTA 64 μM, IKK-2 20 μM, FK506 24 μM, CsA 16 μM
Procedure: Acinar cells were incubated in a 48-well plate with 50 μg/ml of propidium iodide (PI) for 30 min prior to addition of RC. Fluorescence was measured at 536 nm excitation and 617 nm emission wavelengths over time a time course of up to 6 hr. Fluorescence was measured after cell lysis with 0.5% Triton-X 100 was used to normalize the results relative to total DNA.

calcineurin [2] = assay: NFAT-luciferase activity assay in AR42J cells; type: cell-based; conditions: for effect on RC (6%)-induced NFAT-luciferase activity: pretreatment, FK506 24 μM, CsA 16 μM, U73122 5 μM, 2-APB 100 μM, BAPTA 64 μM
Procedure: as §1

calcineurin [3] = assay: NFAT-luciferase activity assay in human acinar cells; type: cell-based
Procedure: as §1

[4] = high-affinity Ca2+-sensing dye; cited from earlier work
PEP model in mice = assay: Intra-ductal RC infusion PEP model in mice: histological severity, serum amylase; type: in vivo, mouse
Source text: The procedure for retrograde infusion into the CBD and pancreatic duct has been described before^14. Briefly, Swiss Webster mice were anesthetized with isoflurane. A midline incision was made to reveal the abdominal cavity. The duodenum was flipped to reveal its distal side and held in place by ligatures. […] needle was inserted through the anti-mesenteric aspect of the duodenum to cannulate the CBD. A small bull dog clamp was applied to the distal CBD (near the duodenum) to prevent back flow of the infusate into the duodenal lumen and to hold the cannula in place. A larger bull dog clamp was applied to the proximal CBD (near the liver) to prevent infusion into the liver and thus to direct flow to the pancreatic duct. Total volumes of 50-100 μl of iohexol, iopamidol, or normal saline (NS) were infused at 10-20 μl per min for 5 min using a P33 perfusion pump (Harvard Apparatus, Holliston, Mass.). Upon completion of the infusion, the bull dog clamps were released. The exterior abdominal wound was closed using 7 mm wound clips, and a single injection of buprenorphine (0.075 mg/kg) was given immediately after the surgery. Mice recovered on a heating pad for 30 min after the procedure. They were given free access to food and water after the surgery. The pancreas, duodenum, and spleen were fixed at room temperature for 24 hr in 4% paraformaldehyde. Paraffin-embedded sections were stained with hematoxylin an eosin (HE) and graded using a 20× objective over 10 separate fields in a blinded fashion. Pancreas tissue was graded for edema, inflammatory infiltrate, and necrosis as described by Wildi et al.^67. Whole blood samples were centrifuged at 1500×g for 5 min at 4° C. Serum amylase was measured using a Phadebas kit (Amersham Pharmacia, Rochester N.Y.) as previously described^68.

pancreatic acinar cells = assay: ATP level measurements in acinar cells; type: cell-based, mouse; conditions: RC, concentration dependent
Procedure: Following isolation, pancreatic acinar cells were cultured in DMEM/F12 Medium (0.5 ml/well of a 48-well plate) at 37° C. water bath and treated with RC±FK506. Cells were collected at indicated time points and lysed in 100 lysis buffer (100 mM Tris pH 7.75, 4 mM EDTA). ATP levels were measured from 20 μl aliquots of acinar cell lysates using the ENLITEN luciferase/luciferin reagent (Promega catalog no. FF2021).

[5] = tested on: mouse pancreatic acinar cells; assay: Ca2+ signals (Fluo-4AM) in mouse pancreatic acinar cells; type: cell-based; conditions: 25% and 33% RC; peak-plateau Ca2+ waves
Procedure: Acinar cells were loaded at room temperature with the high-affinity Ca^2+-sensing dye Fluo-4AM (Kd=300 nM; Invitrogen). Acinar cells were plated on acid-washed glass coverslips and then mounted on a perifusion chamber. Thereupon, they were stimulated at room temperature with varying concentrations of RC (17-50%) diluted in HEPES buffer. Carbachol (1 mM) was given at the end of each experiment to confirm that the cells were intact and could mobilize intracellular Ca^2+ stores. A Zeiss LSM710 laser scanning confocal microscope was used with a […], 1.4 numerical aperture objective. The dye was excited at 488 nm wavelength, and emission signals of >515 nm were collected every 2 sec. Fluorescence from individual acinar cells was recorded. Analysis of recordings was performed using ImageJ software (NIH, Bethesda, Md.), and mean fluorescence over time in each region was graphed.
Groups of pancreatic acinar cells were isolated as previously described 26, 69 with minor modifications. Briefly, the pancreas was removed, and then minced for 5 min in buffer containing 20 mM HEPES (pH 7.4), 95 mM NaCl, 4.7 mM KCl, 0.6 mM MgCl2, 1.3 mM CaCl2=, 10 mM glucose, and 2 mM glutamine, plus 1% BSA, 1×MEM nonessential amino acids (GIBCO/BRL), 200 units/ml type-4 collagenase (Worthington, Freehold, N.J.), and 1 mg/ml soybean trypsin inhibitor. The tissue was incubated for 30 min at 37° C. with shaking at 90 rpm. […]

pancreatic NF-κB = assay: Imaging pancreatic NF-κB bioluminescence in vivo; design: species or system mouse; conditions: 4 hr after surgery, region of the pancreas
Procedure: An AAV6-NF-κB-luciferase reporter was constructed, expanded in HEK293 cells, and purified as previously described^18-20, 39. A volume of 100 μl of virus (10^12 GCP/ml) was infused into the pancreaticobiliary duct at a rate of 10 μl/min using the same technique of RC infusion described above and recently published^21, 39. After a 5-week recovery from the surgery, mice underwent PEP induction with or without FK506 treatment. At varying time points after the surgery, ranging from 2 to 36 hr, bioluminescence signals were obtained by first giving a subcutaneous injection of luciferin (150 μg/g body weight) in the scruff of the neck 15 min before the start of imaging. The mice were briefly anesthetized with isoflurane and placed in the supine position in a bioluminescent imaging chamber (IVIS spectrum imager; Perkin Elmer, Waltham, Mass.) for 3-10 min. Average pixel intensity was measured from a pancreatic region of interest (in the upper abdomen). Raw time points from each mouse were normalized to its individual baseline intensity at time zero.

[6] = varying concentrations of iopamidol

SMILES: NCCOB(c1ccccc1)c1ccccc1 [2-APB]
effect on RC (25%)-induced acinar cell Ca2+ signals (AR42J cells): prevented
reduction of RC-induced luciferase rise (calcineurin [1]; 2-APB 100 μM, P<0.05): 47%
effect on RC-induced NF-κB luciferase levels (NF-κB): reduced
effect on RC (12%)-induced acinar cell injury (PI uptake) (primary acinar cells): prevented
effect on RC (6%)-induced NFAT-luciferase activity (calcineurin [2]): prevented

SMILES: CC(=O)OCOC(=O)CN(CC(=O)OCOC(C)=O)c1ccccc1OCCOc1ccccc1N(CC(=O)OCOC(C)=O)CC(=O)OCOC(C)=O [BAPTA-AM]
effect on RC-induced rise in NFAT-luciferase (calcineurin [1]; 30 min pre-treatment, FK506 24 μM, CsA 16 μM, BAPTA-AM 64 μM): completely reduced
effect on RC-induced NF-κB luciferase levels (NF-κB): reduced
effect on RC (12%)-induced acinar cell injury (PI uptake) (primary acinar cells): prevented
effect on RC (25%)-induced NFAT-luciferase activity (calcineurin [3]): prevented
effect on RC (6%)-induced NFAT-luciferase activity (calcineurin [2]): prevented

SMILES: CC(=O)OCOC(=O)CN(CC(=O)OCOC(C)=O)c1ccc(C)cc1OCCOc1cc(-c2c3cc(F)c(=O)cc-3oc3cc(OCOC(C)=O)c(F)cc23)ccc1N(CC(=O)OCOC(C)=O)CC(=O)OCOC(C)=O [Fluo-4AM]
Kd [4]: 300 nM

SMILES: CCCCCCCCCCC[C@@H](C[C@@H]1OC(=O)[C@H]1CCCCCC)OC(=O)[C@H](CC(C)C)NC=O [Orlistat]
effect of pretreatment on RC-induced NF-κB activation (NF-κB; NAC 2-12 mM, Orlistat 50-100 μM, RC 16%): did not significantly reduce

severity of pancreatitis at pH 6 compared to pH 7 (PEP model in mice; RC buffered with 10 mM HEPES, pH clamped at 6): no increased severity
increase in histological severity above the intra-ductal NS sham control (PEP model in mice; intra-ductal RC, doubled rate and volume, 24 hr after procedure): 59%
serum amylase increase (PEP model in mice; intra-ductal RC, 6 hr post-procedure): at least 50%
ATP levels (pancreatic acinar cells): depletion
SMILES: CC(=O)N(CC(O)CO)c1c(I)c(C(=O)NCC(O)CO)c(I)c(C(=O)NCC(O)CO)c1I (stereo not drawn) [RC, iohexol]
increase in NF-κB luciferase above baseline (NF-κB; 25% RC for 10 min, followed by washout): 5 fold
increase in NF-κB luciferase above baseline (NF-κB; 25% RC for 60 min, P<0.05): 58 fold
increase in NF-κB luciferase above baseline (NF-κB; 25% RC for 90 min, P<0.05): 59 fold
increase in NF-κB luciferase above baseline (NF-κB; 25% RC for 120 min, P<0.05): 112 fold
rise in NF-κB (NF-κB; at 350 mOsm/L): 300 fold
PI uptake (primary acinar cells; RC exposure for 6 hr): concentration-dependent increase
Ca2+ signal amplitude above baseline [5]: 400%
peak in NF-κB luciferase compared to NS sham (pancreatic NF-κB): 13 fold

SMILES: COc1ccc2c(c1)CC[C@@H]1[C@@H]2CC[C@]2(C)[C@@H](NCCCCCCN3C(=O)C=CC3=O)CC[C@@H]12 [U73122]
effect on RC (25%)-induced acinar cell Ca2+ signals (AR42J cells): prevented
effect on RC-induced NF-κB luciferase levels (NF-κB): reduced
effect on RC (12%)-induced acinar cell injury (PI uptake) (primary acinar cells): prevented
effect on RC (6%)-induced NFAT-luciferase activity (calcineurin [2]): prevented

SMILES: COc1ccc2c(c1)c(CC(=O)O)c(C)n2C(=O)c1ccc(Cl)cc1 [indomethacin]
effect of FK506 compared with therapeutic indomethacin on RC-induced pancreatitis (PEP model in mice; FK506 1 mg/kg, indomethacin 7 mg/kg IP after RC infusion): as robust

induction of pancreatitis (PEP model in mice; intra-ductal infusion, 24 hr): induces pancreatitis
SMILES: C[C@H](O)C(=O)Nc1c(I)c(C(=O)NC(CO)CO)c(I)c(C(=O)NC(CO)CO)c1I [iopamidol]
NF-κB activation (NF-κB; [6]): concentration-dependent
NFAT activation (calcineurin [2]; [6]): concentration-dependent

SMILES: OC[C@@H](O)[C@@H](O)[C@H](O)[C@H](O)CO [mannitol]
NF-κB increase at equimolar concentrations (NF-κB; osmolality control, equimolar to RC): failed to cause an increase
